From patent publication US12252493B2, “Imidazo[1,2-c]pyrimidine derivatives as PRC2 inhibitors for treating cancer” (Mirati Therapeutics, Inc., priority 2019, dated 2025)

Experiments:
[1] = molecular target: purified human, His-tagged PRC2 complex (Homo sapiens (Human), UniProt O75530); test: Hot Spot HMT assay of PRC2 enzymatic activity (tritiated methyl transfer from SAM to core histone); type: biochemical; conditions: 10 nM purified PRC2 complex, 0.05 mg/ml core histone H3, 1 uM 3H-SAM, 1 hr at 30° C.; read-out: IC50, Inhibition of PRC2-mediated Enzymatic Activity
purified human, His-tagged PRC2 complex, sequence (Q15910 whole entry): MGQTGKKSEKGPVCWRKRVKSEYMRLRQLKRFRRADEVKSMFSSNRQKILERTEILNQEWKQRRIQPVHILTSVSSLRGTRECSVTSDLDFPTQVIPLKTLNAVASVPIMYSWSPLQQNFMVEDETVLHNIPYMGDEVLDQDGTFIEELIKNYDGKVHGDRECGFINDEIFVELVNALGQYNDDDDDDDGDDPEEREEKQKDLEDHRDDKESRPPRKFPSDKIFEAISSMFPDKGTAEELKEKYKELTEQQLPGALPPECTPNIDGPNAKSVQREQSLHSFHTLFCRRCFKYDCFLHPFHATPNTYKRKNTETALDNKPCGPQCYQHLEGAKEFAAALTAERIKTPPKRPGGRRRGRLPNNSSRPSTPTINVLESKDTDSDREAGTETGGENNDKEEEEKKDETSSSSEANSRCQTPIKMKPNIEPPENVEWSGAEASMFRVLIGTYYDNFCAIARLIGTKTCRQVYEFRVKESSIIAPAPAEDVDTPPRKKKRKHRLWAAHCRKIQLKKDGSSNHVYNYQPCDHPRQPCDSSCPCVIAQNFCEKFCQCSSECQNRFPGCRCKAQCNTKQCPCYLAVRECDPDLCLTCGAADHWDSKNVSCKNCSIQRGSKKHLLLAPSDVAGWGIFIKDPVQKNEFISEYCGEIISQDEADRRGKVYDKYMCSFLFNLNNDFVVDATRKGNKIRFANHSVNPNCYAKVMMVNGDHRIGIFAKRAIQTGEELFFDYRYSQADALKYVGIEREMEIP
purified human, His-tagged PRC2 complex, sequence (O75530 whole entry): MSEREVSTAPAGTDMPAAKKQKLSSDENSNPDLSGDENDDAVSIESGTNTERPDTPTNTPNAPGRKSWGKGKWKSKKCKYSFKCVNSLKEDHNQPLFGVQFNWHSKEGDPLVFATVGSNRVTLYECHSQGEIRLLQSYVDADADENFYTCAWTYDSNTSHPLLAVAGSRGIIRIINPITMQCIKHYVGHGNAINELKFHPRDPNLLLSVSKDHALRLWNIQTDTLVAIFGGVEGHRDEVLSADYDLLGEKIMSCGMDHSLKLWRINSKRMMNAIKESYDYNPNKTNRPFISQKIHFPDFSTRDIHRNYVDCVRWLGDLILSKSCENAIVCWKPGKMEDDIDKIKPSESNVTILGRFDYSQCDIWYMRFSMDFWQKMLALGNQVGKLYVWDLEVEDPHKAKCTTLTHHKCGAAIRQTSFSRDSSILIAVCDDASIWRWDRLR
purified human, His-tagged PRC2 complex, sequence (Q15022 whole entry partner): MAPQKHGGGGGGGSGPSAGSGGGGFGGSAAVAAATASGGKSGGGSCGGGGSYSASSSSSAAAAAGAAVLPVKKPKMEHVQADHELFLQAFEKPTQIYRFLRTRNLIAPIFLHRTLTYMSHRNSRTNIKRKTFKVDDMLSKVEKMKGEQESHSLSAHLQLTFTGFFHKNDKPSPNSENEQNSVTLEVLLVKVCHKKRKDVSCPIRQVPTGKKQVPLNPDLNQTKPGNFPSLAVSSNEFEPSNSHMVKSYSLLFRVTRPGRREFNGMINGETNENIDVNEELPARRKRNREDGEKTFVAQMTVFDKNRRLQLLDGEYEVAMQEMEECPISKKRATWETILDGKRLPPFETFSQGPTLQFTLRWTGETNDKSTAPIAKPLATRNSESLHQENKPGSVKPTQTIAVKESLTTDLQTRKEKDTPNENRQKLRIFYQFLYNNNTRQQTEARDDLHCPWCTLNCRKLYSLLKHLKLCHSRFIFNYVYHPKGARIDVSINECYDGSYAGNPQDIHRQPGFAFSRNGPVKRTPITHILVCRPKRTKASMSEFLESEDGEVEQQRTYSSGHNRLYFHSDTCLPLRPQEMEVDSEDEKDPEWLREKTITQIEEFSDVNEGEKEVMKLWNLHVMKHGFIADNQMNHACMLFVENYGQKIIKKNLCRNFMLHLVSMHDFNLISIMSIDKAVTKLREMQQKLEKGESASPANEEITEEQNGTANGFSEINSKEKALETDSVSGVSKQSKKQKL
purified human, His-tagged PRC2 complex, sequence (Q6ZN18 whole entry partner): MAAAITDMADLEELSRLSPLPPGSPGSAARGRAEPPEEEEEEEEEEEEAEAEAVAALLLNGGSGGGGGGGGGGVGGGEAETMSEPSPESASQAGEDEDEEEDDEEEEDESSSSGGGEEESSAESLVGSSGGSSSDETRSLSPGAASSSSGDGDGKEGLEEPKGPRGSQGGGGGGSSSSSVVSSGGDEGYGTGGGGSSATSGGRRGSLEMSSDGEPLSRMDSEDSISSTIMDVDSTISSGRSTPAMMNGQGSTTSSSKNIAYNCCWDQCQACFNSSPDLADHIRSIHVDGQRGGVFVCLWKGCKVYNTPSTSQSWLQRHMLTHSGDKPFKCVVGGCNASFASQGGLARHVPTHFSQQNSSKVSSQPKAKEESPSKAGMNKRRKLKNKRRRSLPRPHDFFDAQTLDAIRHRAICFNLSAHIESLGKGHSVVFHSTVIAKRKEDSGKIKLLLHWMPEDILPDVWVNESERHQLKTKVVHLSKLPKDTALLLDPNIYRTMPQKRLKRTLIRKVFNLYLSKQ
purified human, His-tagged PRC2 complex, sequence (Q09028 whole entry partner): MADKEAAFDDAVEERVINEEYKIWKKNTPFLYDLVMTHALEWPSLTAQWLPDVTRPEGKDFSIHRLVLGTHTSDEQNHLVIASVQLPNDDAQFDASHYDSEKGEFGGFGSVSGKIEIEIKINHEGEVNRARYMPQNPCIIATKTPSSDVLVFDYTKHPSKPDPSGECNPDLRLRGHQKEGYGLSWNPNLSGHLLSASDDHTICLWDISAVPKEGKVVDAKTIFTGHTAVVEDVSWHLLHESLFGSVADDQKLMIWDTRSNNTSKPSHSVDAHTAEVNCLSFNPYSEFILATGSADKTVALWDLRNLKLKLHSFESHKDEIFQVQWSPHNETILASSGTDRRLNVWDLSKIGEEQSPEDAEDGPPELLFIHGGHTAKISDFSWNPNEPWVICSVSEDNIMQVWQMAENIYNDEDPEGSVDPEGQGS
Procedure: Ten-point dose-response curves for compounds of the present invention were determined using a Hot Spot HMT assay (Reaction Biology Corp; see Horiuchi et al., Assay Drug Dev Technol. (2013) 4: 227-236 doi: 10.1089/adt.2012.480). The assay uses purified human, His-tagged PRC2 complex, including N-terminal His-tagged EZH2 enzyme, N-terminal Flag-tagged embryonic ectoderm development protein (EED), N-terminal His-tagged suppressor of zeste 12 (SUZ12), N-terminal His-tagged AEBP2, and N-terminal His-tagged RbAp48. In this assay, the transfer of the tritiated methyl group from radiolabeled S-adenosyl methionine (SAM) to purified core histone protein by EZH2 is quantitated after filtration to determine the activity of the core PRC2 complex in the presence and absence of compound.
Briefly, compounds of the present invention were solubilized in DMSO and a series of 10, three-fold serial dilutions were made for each compound in 15% DMSO. The initial starting concentration for the serial dilutions of each compound was 1.0 μM. Control samples lacking compound, EZH2 enzyme or various reaction components also were prepared and processed in parallel with compound test samples. SAH (S-(5-adenosyl)-L-homocysteine) was used as a positive control for assay validation.
An aliquot of each serial dilution of test compound was added to deep 384 well plate using Acoustic Technology instrument (Echo 550, LabCyte) containing reaction buffer (50 mM Tris-HCl (pH 8.)), 0.01% Brij35, 1 mM EDTA, 1 mM DTT, 1 mM PMSF and 1% DMSO), 10 nM purified PRC2 complex and 0.05 mg/ml core histone H3 in a 5 μl volume. The reaction was mixed gently and then pre-incubated for 20 min at 30° C. The enzymatic reaction was initiated by adding 1 uM S-Adenosyl-L-[methyl ^3H]methionine and incubated for 1 hr at 30° C. After 1 hr, the reaction product was detected using a filter binding method and the amount of tritiated H3 core histone was quantitated using a scintillation counter. The IC50 value for each compound was determined from each 10-point dose-response curve using GraphPad Prism software and the results for exemplary compounds of Formula (I) are shown in Table 5. Key: A=≤250 nM; B=>250 nM—≤500 nM; and C=>500 nM—≤2 μM.

[2] = tested on: Karpas 422 cells expressing mutant EZH2 (Y641N); test: Karpas 422 cell viability (Cell Titre Glo) assay; type: cell-based, human; conditions: Homo sapiens, CTG viability, time point (Day 4, Day 7 or Day 11) not given, read-out: IC50, Inhibiting Proliferation of Cells Expressing an Activating Mutant Form of EZH2
Procedure: Karpas 422 cell line is a human B cell non-Hodgkin's lymphoma cell line established from a patient having DLBCL. This EZH2 heterozygotic cell line expresses a mutant form of EZH2 enzyme (Y641N) that increases histone H3 methylation and this mutation has been implicated in the tumorgenesis of lymphomas, such as DLBCL.
Karpas 422 cells (PHE cat no., 06101702) were cultured in RPMI medium supplemented with 20% fetal bovine serum and 1% penicillin/1% streptomycin and plated at a density of 1000 cells/90 μl/well in 96 well white assay plates. A dose response curve for compounds of the present invention was determined by adding a 10 μl aliquot of stock solutions of varying concentrations of compounds to the same medium in each well, over a concentration range of 10 μM using 3-fold dilutions to a final concentration of 1.5 nM. The plates were incubated at 37° C. for predetermined time periods, Day 4, Day 7, or Day 11, and the viability of the cells was measured using a CTG assay kit (Cell Titre Glo; Promega cat. no G7573) on Day 4 and Day 7 in accordance with the manufacturer's instructions.
For the viability assay for the Day 11 plates, the plates were subjected to centrifugation at 1100 rpm for five minutes on Day 7 and the supernatant was removed by aspiration. The cells were resuspended in 90 μl aliquot of the appropriate growth medium lacking the compound followed by addition of 10 μl of a 10× stock of the same compound at the same concentration. The viability of the Day 11 cells was measured using the CTG assay kit described above in accordance with the manufacturer's instructions. The IC50 values for each compound at each predetermined time point were calculated using Graph pad PRISM software and the results are shown in Table 7. Key: A=≤250 nM; B=>250 nM-≤500 nM; C=>500 nM-≤5 μM and N.D.=not determined.

[3] = tested on: PRC2-mediated histone H3 methylation (H3 Lys27 trimethylation) in Pfeiffer cells expressing mutant EZH2 (A677G); test: Tri-Methyl Histone H3 (Lys 27) sandwich ELISA in Pfeiffer cells; type: cell-based, human; conditions: Homo sapiens; Pfeiffer cells, 96 hours incubation, ELISA; read-out: IC50, Inhibition of EZH2-mediated Histone H3 Trimethylation
Source text: The Pfeiffer cell line was established from a […] from a patient having metastatic diffuse large B-cell lymphoma (DLBCL). This cell line expresses a mutant form of the EZH2 enzyme (A677G) that results in enhanced EZH2 activity leading to increased methylation of histone H3 Lys27. Increased trimethylation of histone H3 Lys27 is believed to be implicated in tumorgenesis and poor clinical prognosis in lymphomas (McCabe et al., (2012) Nature 492:108-112).
Inhibition of PRC2-mediated histone H3 methylation by compounds of Formula (I) was measured by ELISA using a Tri-Methyl Histone H3 (Lys 27) Sandwich ELISA Kit (Cell Signaling Tech #7866C) in accordance with the manufacturer's instructions. Briefly, Pfeiffer cells were cultured in RPMI medium supplemented with 10% fetal bovine serum and 1% penicillin and 1% streptomycin in 96 well culture plates at 37° C. to a density of 8000 cells/90 μl/well and the cells were harvested. A series of 3-fold serial dilutions of each test compound of Formula (I) were prepared in RPMI medium and added to the cells at final concentrations ranging from 1 μM to 0.15 nM. The plates were incubated at 37° C. for 96 hours.
After incubation, the cells were pelleted by centrifugation in a pre-cooled 4° C. rotor at 1,100 rpm for 10 min and the supernatant was removed by aspiration. The cell pellet was resuspended in 55 μl of Lysis Buffer (0.4M HCl) and incubated on ice with periodic shaking for 30 minutes. The lysed cells were subjected to centrifugation at 4,200 rpm for 10 min at 4° C. and the supernatant containing acid-soluble proteins was collected and the remainder discarded. The acid-soluble proteins were brought to a neutral pH by the addition of 20 μl of Neutralization Buffer (1 M Sodium phosphate, dibasic (pH 12.5), 2.5 mM DTT and 1 mM PMSF) and the neutralized lysates were analyzed by ELISA.
A 65 μl aliquot of each cell lysate was added to a well of a microwell strip, the microwells were sealed using tape and incubated either at 37° C. for two hours or at 4° C. overnight. After incubation, the tape was removed at the microwells were washed four times using 200 μl of 1× Wash Buffer. To each washed microwell, a 100 μl aliquot of an anti-trimethyl histone H3 Lys27 Detection Antibody solution was added and the microwells were incubated at 37° C. for one hour. The Detection Antibody solution was removed by aspiration and the wells were washed four times each using 200 μl of 1× Wash Buffer.
A 100 μl aliquot of an HRP-linked secondary antibody was added to each well, the wells were sealed with tape and incubated at 37° C. for 30 min. The HRP-linked secondary antibody solution was removed by aspiration and the wells were washed four times using 200 μl of 1× Wash Buffer. A 100 μl aliquot of a TMB substrate was added to each well, the wells were sealed with tape and incubated at 37° C. for 10 min or 25° C. for 30 min. The reaction was stopped by the addition of 100 μl aliquot of a STOP solution and the plate was shaken briefly. The degree of histone H3 trimethylation was determined using a spectrophotometric readout by measuring the absorbance at 450 nm and then calculating the amount of trimethylated histone H3. Key: A=≤250 nM; B=>250 nM-≤500 nM; and C=>500 nM-≤5 μM.

Row | IC50 [1] [nM] | IC50 [2] [nM] | IC50 [3] [nM] | SMILES
1 | 250 to 500 | – | – | Cc1cc(-c2cnc(NCc3c(F)ccc4c3CCO4)n3cc(C(N)C(F)(F)F)nc23)n(C)n1 (centres unmarked) [Example 42, 2-(1-amino-2,2,2-trifluoroethyl)-8-(1,3-dimethyl-1H-pyrazol-5-yl)-N-((5-fluoro-2,3-dihydrobenzofuran-4-yl)methyl)imidazo[1,2-c]pyrimidin-5-amine]
2 | < 250 | < 250 | < 250 | CC(N)c1cn2c(NCc3c(F)ccc4c3CCO4)ncc(-c3cc(C#N)nn3C)c2n1 (centres unmarked) [Example 40, 5-(2-(1-aminoethyl)-5-(((5-fluoro-2,3-dihydrobenzofuran-4-yl)methyl)amino)imidazo[1,2-c]pyrimidin-8-yl)-1-methyl-1H-pyrazole-3-carbonitrile]
3 | 500 to 2000 | 250 to 500 | – | COc1ccc(-c2cnc(NCc3c(F)ccc4c3CCO4)n3cc(CO)nc23)c(C)n1 [Example 5, (5-(((5-fluoro-2,3-dihydrobenzofuran-4-yl)methyl)amino)-8-(6-methoxy-2-methylpyridin-3-yl)imidazo[1,2-c]pyrimidin-2-yl)methanol]
4 | < 250 | < 250 | – | Cc1cc(-c2cnc(NCc3c(F)ccc4c3CCO4)n3cc(CO)nc23)n(C)n1 [Example 1, (8-(1,3-dimethyl-1H-pyrazol-5-yl)-5-(((5-fluoro-2,3-dihydrobenzofuran-4-yl)methyl)amino)imidazo[1,2-c]pyrimidin-2-yl)methanol]
5 | 500 to 2000 | 500 to 5000 | – | OCc1cn2c(NCc3c(F)ccc4c3CCO4)ncc(-c3ccc(C4CC4)nc3)c2n1 [Example 4, (8-(6-cyclopropylpyridin-3-yl)-5-(((5-fluoro-2,3-dihydrobenzofuran-4-yl)methyl)amino)imidazo[1,2-c]pyrimidin-2-yl)methanol]
6 | 250 to 500 | – | < 250 | Cn1nccc1-c1cnc(NCc2c(F)ccc3c2CCO3)n2cc(CO)nc12 [Example 6, (5-(((5-fluoro-2,3-dihydrobenzofuran-4-yl)methyl)amino)-8-(1-methyl-1H-pyrazol-5-yl)imidazo[1,2-c]pyrimidin-2-yl)methanol]

Further lines, the molecule ahead of its results:

Row | SMILES | IC50 [1] [nM] | IC50 [2] [nM] | IC50 [3] [nM]
7 | Cc1cc(-c2cnc(NCc3c(F)ccc4c3CCO4)n3cc(-c4nn[nH]n4)nc23)n(C)n1 [Example 43, 8-(1,3-dimethyl-1H-pyrazol-5-yl)-N-((5-fluoro-2,3-dihydrobenzofuran-4-yl)methyl)-2-(2H-tetrazol-5-yl)imidazo[1,2-c]pyrimidin-5-amine] | < 250 | – | –
8 | NCc1cn2c(NCc3c(F)ccc4c3CCO4)ncc(-c3cccc(F)c3)c2n1 [Example 14, 2-(aminomethyl)-N-((5-fluoro-2,3-dihydrobenzofuran-4-yl)methyl)-8-(3-fluorophenyl)imidazo[1,2-c]pyrimidin-5-amine] | 250 to 500 | 500 to 5000 | –
9 | Cc1cc(-c2cnc(NCc3c(F)ccc4c3CCO4)n3cc(C(O)c4ccccc4)nc23)n(C)n1 (centres unmarked) [Example 8] | 250 to 500 | – | –
10 | CNCc1cn2c(NCc3c(F)ccc4c3CCO4)ncc(-c3cc(C)nn3C)c2n1 [Example 25, 8-(1,3-dimethyl-1H-pyrazol-5-yl)-N-((5-fluoro-2,3-dihydrobenzofuran-4-yl)methyl)-2-((methylamino)methyl)imidazo[1,2-c]pyrimidin-5-amine] | 250 to 500 | 250 to 500 | –
11 | Cc1ncccc1-c1cnc(NCc2c(F)ccc3c2CCO3)n2cc(CO)nc12 [Example 3, (5-(((5-fluoro-2,3-dihydrobenzofuran-4-yl)methyl)amino)-8-(2-methylpyridin-3-yl)imidazo[1,2-c]pyrimidin-2-yl)methanol] | 500 to 2000 | 500 to 5000 | –
12 | Cc1cc(S(C)(=O)=O)ccc1-c1cnc(NCc2c(F)ccc3c2CCO3)n2cc(CO)nc12 [Example 2, (5-(((5-fluoro-2,3-dihydrobenzofuran-4-yl)methyl)amino)-8-(2-methyl-4-(methylsulfonyl)phenyl)imidazo[1,2-c]pyrimidin-2-yl)methanol] | < 250 | 500 to 5000 | –
13 | Cc1cc(-c2cnc(NCc3c(F)ccc4c3CCO4)n3cc(CN(C)C)nc23)n(C)n1 [Example 26, 8-(1,3-dimethyl-1H-pyrazol-5-yl)-2-((dimethylamino)methyl)-N-((5-fluoro-2,3-dihydrobenzofuran-4-yl)methyl)imidazo[1,2-c]pyrimidin-5-amine] | 500 to 2000 | – | –
